Holding throughout (experiment): cells
Common to all, as to type: cell-based

For one experiment, the system named is A549 cell line. The following applies: read-out: IC50 (μM) A549. As to the method: (§1) Test of compounds of embodiment of the present invention on inhibiting tumor cell activity
(§2) 3, cell lines: A549, BGC823, Hela cell line and normal human hepatocytes which are available from Wu Han boster Co., Ltd.;
(§3) A549, BGC823, Hela cell line and normal human hepatocytes in logarithmic growth phase are subjected to 1000 rpm centrifugation for 5 min, supernatant is then discarded, moderate medium is suspended, the cell concentration is adjusted to 3.5×10^4/well, the cells were seeded in 96-wells culture plate, and following experimental groups are set:
(§4) a negative control group; 35 test groups with same concentration (ie: groups of Compound (1) to Compound (35)); three control groups: groups of podophyllotoxin, 4′-demethylepipodophyllotoxin and etoposide.
(§5) Taking RPMI1640 containing 10% of calf serum as nutrient solution, 0.10 mL of cells per well is incubated under conditions of 37° C., 5% CO2 and saturated humidity for 24 h to nearly be covered, then the nutrient solution is discarded. […] 100 μl of DMSO is added to each well, then vibrated at 37° C. by shaker table for 30 min, then measuring absorbance (OD) at 492 nm, calculating MTT ratio=OD value of drug group/OD value of the negative control group.

Another experiment concerns BGC823 cell line. The following applies: read-out: IC50 (μM) BGC823. As to the method:
as §1, §2, §3, §4, §5

In a further experiment the test system is Hela cell line. To be noted: read-out: IC50 (μM) Hela. As to the method:
as §1, §2, §3, §4, §5

Where [1] appears, read: A549 cells, MTT, 48 h cultivation.
Where [2] appears, read: BGC823 cells, MTT, 48 h cultivation.
Setting [3] is: Hela cells, MTT, 48 h cultivation.

Like-named read-outs stand apart in the source and are kept apart here.

As to `COc1cc(C2c3cc4c(cc3C(Sc3nnc(C)s3)C3COC(=O)C23)OCO4)cc(OC)c1OC` (stereo not drawn) [Compound 4, 4-S-(5-methyl-1,3,4-thiadiazol-2)-4-deoxy-podophyllotoxin], the IC50 in the experiment with A549 cell line (setting [1]) was 4.11 ± 0.93 µM; in the experiment with BGC823 cell line (setting [2]), 4.01 ± 0.02 µM; with Hela cell line (setting [3]), 2.18 ± 0.07 µM.
On to `COc1ccc(S(=O)(=O)Nc2n[nH]c(SC3c4cc5c(cc4C(c4cc(OC)c(OC)c(OC)c4)C4C(=O)OCC34)OCO5)n2)cc1` (stereo not drawn) [Compound 16, 4-S-[3-N-(4-methoxy-benzenesulfonamide-)-1,2,4-triazole-5-]-4-deoxy-podophyllotoxin], for which the IC50 with A549 cell line (setting [1]) was determined as 1.24 ± 0.33 µM; with BGC823 cell line (setting [2]), 0.67 ± 0.05 µM; in the experiment with Hela cell line (setting [3]), 1.56 ± 0.05 µM.
Turning to `COc1cc(C2c3cc4c(cc3C(Sc3nc(NS(=O)(=O)c5ccc(C)cc5)n[nH]3)C3COC(=O)C23)OCO4)cc(OC)c1OC` (stereo not drawn) [Compound 15, 4-S-[3-N-(4-methyl-benzenesulfonamide-)-1,2,4-triazole-5-]-4-deoxy-podophyllotoxin], the IC50 in the experiment with A549 cell line (setting [1]) was found to be 2.36 ± 0.23 µM; with BGC823 cell line (setting [2]), 1.69 ± 0.07 µM; in the experiment on Hela cell line (setting [3]), 0.6 ± 0.08 µM.
For `COc1cc(C2c3cc4c(cc3C(Sc3nc5ccccc5o3)C3COC(=O)C23)OCO4)cc(OC)c1O` (stereo not drawn) [Compound 31, 4-S-(benzoxazole-2)-4-deoxy-4′-demethylepipodophyllotoxin], the values for the IC50 in the experiment with A549 cell line (setting [1]), with BGC823 cell line (setting [2]) and in the experiment with Hela cell line (setting [3]) were 1.46 ± 0.89 µM, 1.36 ± 0.2 µM and 0.13 ± 0.01 µM, respectively.
As for `COc1ccc(S(=O)(=O)Nc2nnc(SC3c4cc5c(cc4C(c4cc(OC)c(OC)c(OC)c4)C4C(=O)OCC34)OCO5)s2)cc1` (stereo not drawn) [Compound 18, 4-S-[2-N-(4-methoxy-benzenesulfonamide-)-1,3,4-thiadiazole-5-]-4-deoxy-podophyllotoxin], the IC50 was determined as 4.05 ± 0.15 µM in the experiment with A549 cell line (setting [1]), 1.27 ± 0.13 µM with BGC823 cell line (setting [2]) and 4.14 ± 0.47 µM in the experiment with Hela cell line (setting [3]).
With `COc1cc(C2c3cc4c(cc3C(Sc3ccccn3)C3COC(=O)C23)OCO4)cc(OC)c1O` (stereo not drawn) [Compound 22, 4-S-(pyridin-2)-4-deoxy-4′-demethylepipodophyllotoxin], the IC50 amounted to 1.01 ± 0.38 µM in the experiment with A549 cell line (setting [1]), 0.27 ± 0.03 µM in the experiment on BGC823 cell line (setting [2]) and 2.31 ± 0.31 µM in the experiment on Hela cell line (setting [3]).
For `COc1cc(C2c3cc4c(cc3C(O)C3COC(=O)C23)OCO4)cc(OC)c1O` (stereo not shown) [4′-demethylepipodophyllotoxins, 4′-demethylepipodophyllotoxin, reference compound], the IC50 in the experiment with A549 cell line (setting [1]) was 52.9 ± 0.85 µM; with BGC823 cell line (setting [2]) it was 63.09 ± 0.49 µM; with Hela cell line (setting [3]) it was 49.32 ± 0.38 µM.
On the same counts, the results for `COc1cc(C2c3cc4c(cc3C(Sc3ncccc3C(=O)O)C3COC(=O)C23)OCO4)cc(OC)c1O` (stereo not drawn) [Compound 23, 4-S-(3-picolinate-2)-deoxy-4′-demethylepipodophyllotoxin] are 2.03 ± 0.45 µM, 6.68 ± 0.04 µM and 1.22 ± 0.25 µM.
On to `COc1cc([C@@H]2c3cc4c(cc3[C@H](O)[C@H]3COC(=O)[C@H]23)OCO4)cc(OC)c1OC` [podophyllotoxin, reference compound], for which the IC50 with A549 cell line (Homo sapiens, A549, 48 h) was 67.18 ± 0.24 µM; in the experiment on BGC823 cell line (Homo sapiens, BGC-823, 48 h), 75.81 ± 0.73 µM; with Hela cell line (Homo sapiens, HeLa, 48 h), 55.53 ± 0.24 µM.
On to `COc1cc(C2c3cc4c(cc3C(Sc3ncccn3)C3COC(=O)C23)OCO4)cc(OC)c1O` (stereo not drawn) [Compound 26, 4-S-(pyrimidine-2)-4-deoxy-4′-demethylepipodophyllotoxin], for which the values for the IC50 in the experiment with A549 cell line (setting [1]), in the experiment with BGC823 cell line (setting [2]) and in the experiment with Hela cell line (setting [3]) were 4.28 ± 0.11 µM, 0.51 ± 0.53 µM and 0.25 ± 0.32 µM, respectively.
Turning to `COc1ccc(S(=O)(=O)Nc2nnc(SC3c4cc5c(cc4C(c4cc(OC)c(O)c(OC)c4)C4C(=O)OCC34)OCO5)s2)cc1` (stereo not drawn) [Compound 35, 4-S-[2-N-(4-methoxy-benzenesulfonamide-)-1,3,4-thiadiazole-5-]-4-deoxy-4′-demethylepipodophyllotoxin], the figures for the IC50 in the experiment with A549 cell line (setting [1]), in the experiment with BGC823 cell line (setting [2]) and in the experiment with Hela cell line (setting [3]) were 0.84 ± 0.62 µM, 2.23 ± 0.69 µM and 1.19 ± 0.57 µM, respectively.
Taken in the same sequence, the figures for `COc1cc(C2c3cc4c(cc3C(Sc3nc(C)cc(C)n3)C3COC(=O)C23)OCO4)cc(OC)c1OC` (stereo not drawn) [Compound 11, 4-S-(4,6-dimethyl-pyrimidine-2)-4-deoxy-podophyllotoxin] were 3.31 ± 0.26 µM, 1.99 ± 0.34 µM and 0.11 ± 0.01 µM.
On the same counts, the results for `COc1cc(C2c3cc4c(cc3C(Sc3nc5ccccc5s3)C3COC(=O)C23)OCO4)cc(OC)c1OC` (stereo not drawn) [Compound 12, 4-S-(benzothiazol-2)-4-deoxy-podophyllotoxin] are 3.85 ± 0.47 µM, 0.31 ± 0.34 µM and 0.6 ± 0.39 µM.
Turning to `COc1cc(C2c3cc4c(cc3C(Sc3nnc(N)s3)C3COC(=O)C23)OCO4)cc(OC)c1OC` (stereo not drawn) [Compound 3, 4-S-(2-amino-1,3,4-thiadiazole-5)-4-deoxy-podophyllotoxin], the IC50 with A549 cell line (setting [1]) turned out to be 1.98 ± 2.54 µM; in the experiment on BGC823 cell line (setting [2]) it was 0.71 ± 0.03 µM; with Hela cell line (setting [3]), 0.06 ± 0.01 µM.
For the compound `COc1cc(C2c3cc4c(cc3C(Sc3n[nH]c(NS(=O)(=O)c5ccc(C)cc5)n3)C3COC(=O)C23)OCO4)cc(OC)c1O` (stereo not drawn) [Compound 32, 4-S-[3-N-(4-methyl-benzenesulfonamide-)-1,2,4-triazole-5-]-4-deoxy-4′-demethylepipodophyllotoxin], the IC50 with A549 cell line (setting [1]) is 1.67 ± 0.28 µM; in the experiment with BGC823 cell line (setting [2]), 0.67 ± 0.22 µM; in the experiment on Hela cell line (setting [3]) it was 0.53 ± 0.17 µM.
Taken in the same sequence, the figures for `COc1cc(C2c3cc4c(cc3C(Sc3ccncc3)C3COC(=O)C23)OCO4)cc(OC)c1OC` (stereo not drawn) [Compound 8, 4-S-(pyridin-4)-4-deoxy-podophyllotoxin] were 8.12 ± 0.09 µM, 1.52 ± 0.11 µM and 3.85 ± 0.14 µM.
On the same counts, the results for `COc1cc(C2c3cc4c(cc3C(Sc3nnc(C)s3)C3COC(=O)C23)OCO4)cc(OC)c1O` (stereo not drawn) [Compound 21, 4-S-(5-methyl-1,3,4-thiadiazol-2)-4-deoxy-4′-demethylepipodophyllotoxin] are 5.76 ± 0.18 µM, 0.83 ± 0.14 µM and 0.52 µM.
On the same counts, the results for “4-S-(5-methyl-1,2,4-triazole-3)-4-deoxy-4′-demethylepipodophyllotoxin [Compound 20]” are 0.35 ± 0.37 µM, 0.21 ± 0.35 µM and 6.62 ± 0.35 µM.
On to `COc1cc(C2c3cc4c(cc3C(Sc3nc5ccccc5[nH]3)C3COC(=O)C23)OCO4)cc(OC)c1O` (stereo not drawn) [Compound 30, 4-S-(benzimidazole-2)-4-deoxy-4′-demethylepipodophyllotoxin], for which the IC50 in the experiment with A549 cell line (setting [1]) worked out at 1.24 ± 0.27 µM; in the experiment with BGC823 cell line (setting [2]), 0.31 ± 0.16 µM; with Hela cell line (setting [3]), 0.51 ± 0.13 µM.
For the compound `COc1cc(C2c3cc4c(cc3C(Sc3n[nH]c(N)n3)C3COC(=O)C23)OCO4)cc(OC)c1OC` (stereo not drawn) [Compound 1, 4-S-(3-amino-1,2,4-triazole-5)-4-deoxy-podophyllotoxin], the IC50 in the experiment on A549 cell line (setting [1]) turned out to be 5.76 ± 0.34 µM; with BGC823 cell line (setting [2]), 0.83 ± 0.14 µM; with Hela cell line (setting [3]), 2.86 ± 0.34 µM.
In the case of `COc1cc(C2c3cc4c(cc3C(Sc3nc5ccccc5[nH]3)C3COC(=O)C23)OCO4)cc(OC)c1OC` (stereo not drawn) [Compound 13, 4-S-(benzimidazol-2)-4-deoxy-podophyllotoxin], the IC50 with A549 cell line (setting [1]) was 6.76 ± 4.31 µM; in the experiment with BGC823 cell line (setting [2]), 2.32 ± 0.01 µM; in the experiment on Hela cell line (setting [3]) it was 3.1 ± 0.16 µM.
On the same counts, the results for `COc1cc(C2c3cc4c(cc3C(Sc3ncccn3)C3COC(=O)C23)OCO4)cc(OC)c1OC` (stereo not drawn) [Compound 9, 4-S-(pyrimidine-2)-4-deoxy-podophyllotoxin] are 6.4 ± 0.38 µM, 0.71 ± 0.14 µM and 3.64 ± 0.46 µM.
As for `COc1cc([C@@H]2c3cc4c(cc3[C@@H](O[C@@H]3O[C@@H]5CO[C@@H](C)O[C@H]5[C@H](O)[C@H]3O)[C@H]3COC(=O)[C@H]23)OCO4)cc(OC)c1O` [etoposide, reference compound], in the experiment with Hela cell line (Homo sapiens, Hela cells, MTT, 48 h cultivation), the half-inhibitory concentration (IC50) came out at 13.2 ± 1.65 µM.

The record behind these values is patent US9828386B2 (priority 2013, dated 2017).
